Source: patent US11610666B2, “Systems and methods of managing treatment of a chronic condition by symptom tracking” (CORCEPT THERAPEUTICS, INC., priority 2014, dated 2023)

Conditions: human, in vivo
From the text: Treatment of endocrine disorders, such as Cushing's Syndrome, can be particularly difficult to manage due to less predictable patient response to administration of a synthetic steroid, such as mifepristone. Mifepristone is a synthetic steroid that binds progesterone and glucocorticoid receptors and has been employed to treat a number of conditions including meningioma, uterine fibroids, hyperadrenocorticism, metabolic, oncologic, opthamalogic, central nervous system disorders and certain psychiatric illnesses. Examples of such metabolic disorders include diabetes, obesity, antipsychotic induced weight gain, hypertension, and osteoporosis; examples of oncologic illness include various types of cancers, including ovarian cancer and prostate cancer; examples of central nervous system disorders include Alzheimer's Disease, neurodegenerative diseases, post traumatic stress disorder, and alcohol dependence; and examples of opthamalogical conditions include glaucoma and central serous retinopathy. […] For a particular dose of mifepristone, the plasma drug concentration can differ by as much as 800% from one patient to the next. The varied plasma drug concentration can result in some patients not receiving an efficacious dose of mifepristone. For these patients in particular, it is necessary to improve the pharmacokinetics of mifepristone upon administration. […]

- difference in plasma drug concentration from one patient to the next: ≤ 800%
SMILES: CC#C[C@]1(O)CC[C@H]2[C@@H]3CCC4=CC(=O)CCC4=C3[C@@H](c3ccc(N(C)C)cc3)C[C@@]21C [mifepristone]
